{
  "source": "patent US7531534B2",
  "about": "“Heterocyclic antiviral compounds” (Roche Palo Alto LLC, priority 2006, dated 2009)",
  "data": [
    {"tested_on": "not given", "test": "not given", "settings": "not given", "units": {"melting point": "°C"}, "values": [
      {"smiles": "CCS(=O)(=O)Nc1ccc2c(c1)S(=O)(=O)C(Cl)=C(C1=C(O)[C@H](C(C)(C)C)N(CCC(C)C)C1=O)N2", "melting point": "125 to 165"},
      {"smiles": "CCS(=O)(=O)Nc1ccc2c(c1)S(=O)(=O)C(Cl)=C(C1=C(O)[C@H](C(C)(C)C)N(Cc3ccc(F)c(C)c3)C1=O)N2", "melting point": "130 to 135"},
      {"smiles": "CC(C)(C)[C@H]1C(O)=C(C2=C(Cl)S(=O)(=O)c3cc(NS(C)(=O)=O)ccc3N2)C(=O)N1Cc1ccc(F)c(Cl)c1", "melting point": "147 to 151"},
      {"smiles": "Cc1cc(CN2C(=O)C(C3=C(Cl)S(=O)(=O)c4cc(NS(C)(=O)=O)ccc4N3)=C(O)[C@@H]2C(C)(C)C)ccc1F", "melting point": "140 to 146"},
      {"smiles": "CCS(=O)(=O)Nc1ccc2c(c1)S(=O)(=O)C(Cl)=C(C1=C(O)[C@H](C(C)(C)C)N(Cc3ccc(F)cc3)C1=O)N2", "melting point": "136 to 140"},
      {"smiles": "CC(C)(C)[C@H]1C(O)=C(C2=C(Cl)S(=O)(=O)c3cc(NS(=O)(=O)C4CC4)ccc3N2)C(=O)N1Cc1ccc(F)c(Cl)c1", "melting point": "137 to 141"},
      {"smiles": "CC(C)CCN1C(=O)C(C2=C(C(N)=O)S(=O)(=O)c3cc(NS(C)(=O)=O)ccc3N2)=C(O)[C@@H]1C(C)(C)C", "melting point": "150 to 155"},
      {"smiles": "CC(C)CCN1C(=O)C(C2=C(C#N)S(=O)(=O)c3cc(NS(C)(=O)=O)ccc3N2)=C(O)C1C(C)(C)C", "note": "(stereo not shown)", "melting point": "> 250"},
      {"smiles": "Cc1cc(CN2C(=O)C(C3=C(C#N)S(=O)(=O)c4cc(NS(C)(=O)=O)ccc4N3)=C(O)C2C(C)(C)C)ccc1F", "note": "(stereo not shown)", "melting point": "> 250"},
      {"smiles": "CC(C)(C)[C@H]1C(O)=C(C2=C(Cl)S(=O)(=O)c3cc(NS(C)(=O)=O)ccc3N2)C(=O)N1CCC1CCCC1", "melting point": "137 to 141"},
      {"smiles": "CC(C)(C)[C@H]1C(O)=C(C2=C(Cl)S(=O)(=O)c3cc(NS(=O)(=O)C4CC4)ccc3N2)C(=O)N1Cc1ccc(F)cc1", "melting point": "137 to 141"},
      {"smiles": "CC(C)(C)[C@H]1C(O)=C(C2=C(Cl)S(=O)(=O)c3cc(NS(C)(=O)=O)ccc3N2)C(=O)N1Cc1ccc(F)cc1", "note": "[Compound I-3, N-{3-[(S)-5-tert-Butyl-1-(4-fluoro-benzyl)-4-hydroxy-2-oxo-2,5-dihydro-1H-pyrrol-3-yl]-2-chloro-1,1-dioxo-1,4-dihydro-1λ^6-benzo[1,4]thiazin-7-yl}-methanesulfonamide]", "melting point": "144 to 148"},
      {"smiles": "CN(C)C(=O)C1=C(C2=C(O)[C@H](C(C)(C)C)N(Cc3ccc(F)cc3)C2=O)Nc2ccc(NS(C)(=O)=O)cc2S1(=O)=O", "melting point": 140},
      {"smiles": "CC(C)(C)C1C(O)=C(C2=C(C#N)S(=O)(=O)c3cc(NS(C)(=O)=O)ccc3N2)C(=O)N1CCC1CCCC1", "note": "(stereo not shown)", "melting point": "> 250"},
      {"smiles": "COc1cc(CN2C(=O)C(C3=C(C#N)S(=O)(=O)c4cc(NS(C)(=O)=O)ccc4N3)=C(O)C2C(C)(C)C)ccc1F", "note": "(stereo not shown)", "melting point": 218},
      {"smiles": "CC(C)(C)[C@H]1C(O)=C(C2=C(Cl)S(=O)(=O)c3cc(NS(C)(=O)=O)ccc3N2)C(=O)N1Cc1ccccc1", "melting point": "148 to 152"},
      {"smiles": "CC(C)CCN1C(=O)C(C2=C(Cl)S(=O)(=O)c3cc(NS(C)(=O)=O)ccc3N2)=C(O)[C@@H]1C(C)(C)C", "melting point": "142 to 145"},
      {"smiles": "CC1=C(C2=C(O)[C@H](C(C)(C)C)N(Cc3ccc(F)cc3)C2=O)Nc2ccc(NS(C)(=O)=O)cc2S1(=O)=O", "melting point": "170 to 174"},
      {"smiles": "Cc1cc(CN2C(=O)C(C3=C(Cl)S(=O)(=O)c4cc(NS(=O)(=O)C5CC5)ccc4N3)=C(O)[C@@H]2C(C)(C)C)ccc1F", "melting point": "127 to 131"},
      {"smiles": "COc1cc(CN2C(=O)C(C3=C(Cl)S(=O)(=O)c4cc(NS(C)(=O)=O)ccc4N3)=C(O)[C@@H]2C(C)(C)C)ccc1F", "melting point": "139 to 144"},
      {"smiles": "Cc1cc(CN2C(=O)C(C3=C(C(N)=O)S(=O)(=O)c4cc(NS(C)(=O)=O)ccc4N3)=C(O)[C@@H]2C(C)(C)C)ccc1F", "melting point": "168 to 172"},
      {"smiles": "CC1=C(C2=C(O)[C@H](C(C)(C)C)N(CCC(C)C)C2=O)Nc2ccc(NS(C)(=O)=O)cc2S1(=O)=O", "melting point": "210 to 215"},
      {"smiles": "CCS(=O)(=O)Nc1ccc2c(c1)S(=O)(=O)C(Cl)=C(C1=C(O)[C@H](C(C)(C)C)N(Cc3ccc(F)c(Cl)c3)C1=O)N2", "melting point": "140 to 144"},
      {"smiles": "CC(C)(C)[C@H]1c2oc(=O)c3c(c2C(=O)N1Cc1ccc(F)cc1)Nc1ccc(NS(C)(=O)=O)cc1S3(=O)=O", "melting point": 120}
    ]},
    {"tested_on": "Renilla luciferase HCV replicon cells (2209-23)", "test": "Renilla luciferase Assay (HCV replicon)", "assay_type": "cell-based", "settings": "Huh-7, 72 h; replicon cells 2209-23 (Huh7), three days incubation; read-out: R. luciferase Activity IC50", "units": {"IC50": "nM"}, "values": [
      {"smiles": "Cc1cc(CN2C(=O)C(C3=C(F)S(=O)(=O)c4cc(NS(C)(=O)=O)ccc4N3)=C(O)[C@@H]2C(C)(C)C)ccc1F", "note": "[Compound I-18, N-{3-[(S)-5-tert-Butyl-1-(4-fluoro-3-methyl-benzyl)-4-hydroxy-2-oxo-2,5-dihydro-1H-pyrrol-3-yl]-2-fluoro-1,1-dioxo-1,4-dihydro-1λ^6-benzo[1,4]thiazin-7-yl}-methanesulfonamide]", "IC50": 16},
      {"smiles": "CC(C)(C)C1C(O)=C(C2=C(C#N)S(=O)(=O)c3cc(NS(C)(=O)=O)ccc3N2)C(=O)N1Cc1ccc(F)cc1", "note": "(stereo not shown) [Compound I-19, N-{3-[5-tert-Butyl-1-(4-fluoro-benzyl)-4-hydroxy-2-oxo-2,5-dihydro-1H-pyrrol-3-yl]-2-cyano-1,1-dioxo-1,4-dihydro-1λ^6-benzo[1,4]thiazin-7-yl}-methanesulfonamide]", "IC50": 16},
      {"smiles": "CC(C)(C)[C@H]1C(O)=C(C2=C(Cl)S(=O)(=O)c3cc(NS(C)(=O)=O)ccc3N2)C(=O)N1Cc1ccc(F)cc1", "note": "[Compound I-3, N-{3-[(S)-5-tert-Butyl-1-(4-fluoro-benzyl)-4-hydroxy-2-oxo-2,5-dihydro-1H-pyrrol-3-yl]-2-chloro-1,1-dioxo-1,4-dihydro-1λ^6-benzo[1,4]thiazin-7-yl}-methanesulfonamide]", "IC50": 4}
    ]},
    {"tested_on": "HCV", "test": "not given", "settings": "ribavirin monotherapy; cited from earlier work", "units": {"patients in whom serum amino transferase levels are reduced to normal": "%"}, "values": [
      {"smiles": "NC(=O)c1ncn([C@@H]2O[C@H](CO)[C@@H](O)[C@H]2O)n1", "note": "[ribavirin, 1-((2R,3R,4S,5R)-3,4-Dihydroxy-5-hydroxymethyl-tetrahydro-furan-2-yl)-1H-[1,2,4]triazole-3-carboxylic acid amide]", "patients in whom serum amino transferase levels are reduced to normal": 40}
    ]},
    {"target": "T1, HCV NS5B570n-BK (Hepatitis C virus genotype 1b, UniProt P26663)", "T1 construct": "histidine tag (N); made in house; host or cells: E. coli strain M15", "T1 sequence (P26663 2420-2989)": "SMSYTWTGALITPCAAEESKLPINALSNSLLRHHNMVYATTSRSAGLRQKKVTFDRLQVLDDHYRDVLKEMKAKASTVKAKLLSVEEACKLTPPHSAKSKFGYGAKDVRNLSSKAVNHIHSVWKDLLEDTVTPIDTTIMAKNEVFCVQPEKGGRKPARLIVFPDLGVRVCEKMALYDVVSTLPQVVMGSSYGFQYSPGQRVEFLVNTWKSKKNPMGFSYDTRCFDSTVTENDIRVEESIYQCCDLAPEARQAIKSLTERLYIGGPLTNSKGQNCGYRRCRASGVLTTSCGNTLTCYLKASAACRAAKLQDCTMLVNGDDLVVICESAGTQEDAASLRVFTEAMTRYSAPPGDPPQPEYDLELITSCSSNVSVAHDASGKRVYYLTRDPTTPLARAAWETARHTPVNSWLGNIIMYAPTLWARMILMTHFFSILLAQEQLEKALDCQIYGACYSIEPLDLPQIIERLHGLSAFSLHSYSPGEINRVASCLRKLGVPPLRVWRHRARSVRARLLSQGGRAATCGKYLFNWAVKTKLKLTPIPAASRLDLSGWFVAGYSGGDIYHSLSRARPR", "test": "HCV NS5B RNA Polymerase Activity", "assay_type": "biochemical", "settings": "not given", "experimental": "(§1) The enzymatic activity of HCV NS5B570n-BK is measured as incorporation of radiolabeled nucleotide monophosphates into acid insoluble RNA products. Unincorporated radiolabel substrate is removed by filtration and scintillant is added to the washed and dried filter plate containing radiolabeled RNA product. The light emitted by the scintillant is proportional to the amount of RNA product generated by NS5B570n-BK at the endpoint of the reaction.\n(§2) The N-terminally histidine tagged HCV polymerase, derived from HCV BK strain, genotype 1b (NS5B570n-BK) contains a 21 amino acid deletion at the C-terminus relative to the full-length HCV polymerase and is purified from E. coli strain M15. The construct containing the coding sequence of HCV BK strain amino acid residues 2421-2999 (GenBank accession number M58335) downstream of a […] promoter expression cassette was inserted into plasmid constructs. The plasmid constructs are transformed in E. coli and colonies are inoculated and grown overnight in 10 L of Terrific broth (Tartoff and Hobbs) supplemented with 100 μg/mL ampicillin at 37° C. Protein expression is induced by addition of 1 mM isopropyl-β-D-thiogalactopyranoside (IPTG), when optical densities reaches between 1.5 and 3.5 OD600 and the culture is then incubated for 16- to 18 h at 22° C. NS5B570n-BK is purified to homogeneity using a three step protocol including subsequent column chromatography on Ni-NTA, SP-Sepharose HP and Superdex 75 resins. […]\n(§3) The amount of light emitted from the scintillant is converted to counts per minute (CPM) on a Topcount® plate reader (Perkin-Elmer, Energy Range: Low, Efficiency Mode: Normal, Count Time: 1 min, Background Subtract: none, Cross talk reduction: Off).\n(§4) Data is analyzed with GraphPad® Prism® and/or Microsoft® Excel®. […] All data is expressed as a percentage of the positive control. […]", "units": {"IC50": "nM"}, "values": [
      {"smiles": "CC(C)(C)C1C(O)=C(C2=C(C#N)S(=O)(=O)c3cc(NS(C)(=O)=O)ccc3N2)C(=O)N1Cc1ccc(F)cc1", "note": "(stereo not shown) [Compound I-19, N-{3-[5-tert-Butyl-1-(4-fluoro-benzyl)-4-hydroxy-2-oxo-2,5-dihydro-1H-pyrrol-3-yl]-2-cyano-1,1-dioxo-1,4-dihydro-1λ^6-benzo[1,4]thiazin-7-yl}-methanesulfonamide]", "IC50": 6},
      {"smiles": "CC(C)(C)[C@H]1C(O)=C(C2=C(Cl)S(=O)(=O)c3cc(NS(C)(=O)=O)ccc3N2)C(=O)N1Cc1ccc(F)cc1", "note": "[Compound I-3, N-{3-[(S)-5-tert-Butyl-1-(4-fluoro-benzyl)-4-hydroxy-2-oxo-2,5-dihydro-1H-pyrrol-3-yl]-2-chloro-1,1-dioxo-1,4-dihydro-1λ^6-benzo[1,4]thiazin-7-yl}-methanesulfonamide]", "IC50": 2}
    ]},
    {"target": "T1, HCV NS5B570n-BK", "test": "HCV NS5B RNA Polymerase Activity", "assay_type": "biochemical", "settings": "NS5B570n-BK, poly A:oligo U16, tritiated UTP incorporation; read-out: Polymerase Assay IC50", "experimental": "as §1, §2, §3, §4", "units": {"IC50": "nM"}, "values": [
      {"smiles": "Cc1cc(CN2C(=O)C(C3=C(F)S(=O)(=O)c4cc(NS(C)(=O)=O)ccc4N3)=C(O)[C@@H]2C(C)(C)C)ccc1F", "note": "[Compound I-18, N-{3-[(S)-5-tert-Butyl-1-(4-fluoro-3-methyl-benzyl)-4-hydroxy-2-oxo-2,5-dihydro-1H-pyrrol-3-yl]-2-fluoro-1,1-dioxo-1,4-dihydro-1λ^6-benzo[1,4]thiazin-7-yl}-methanesulfonamide]", "IC50": 5}
    ]}
  ]
}
